14 compounds from ChEMBL document CHEMBL1155690, “Antiyeast steroidal saponins from Yucca schidigera (Mohave yucca), a new anti-food-deteriorating agent” (2000) can be followed below.

Each structure is given as a SMILES string. ≈ marks a conversion by molar mass, not a printed value. A value given as a limit tells only on which side of the number the result lay.

Common to all, as to type: functional
In one assay the test system is Candida albicans. The experiment in a line: Antimicrobial activity against Candida albicans TIMM 0134 after 48 hrs by agar dilution method.
For another assay, the system named is Wickerhamomyces anomalus. The experiment in a line: Antimicrobial activity against Hansenula anomala HUT 7083 after 48 hrs by agar dilution method.
The next assay relates to Hanseniaspora uvarum. In words: Antimicrobial activity against Kloeckera apiculata IFO 154 after 48 hrs by agar dilution method. As to conditions: IFO 154, 48 h.
A further assay relates to Saccharomyces cerevisiae. The experiment in a line: Antimicrobial activity against Saccharomyces cerevisiae IFO 203 after 48 hrs by agar dilution method. Conditions: IFO 203, 48 h.
The test system of another assay is Yamadazyma nakazawae. The experiment in a line: Antimicrobial activity against Pichia nakazawae HUT 1688 after 48 hrs by agar dilution method. (In agar dilution the substance is mixed into plates at graded concentrations.)
For a further assay, the system named is Debaryomyces hansenii. In words: Antimicrobial activity against Debaryomyces hansenii IFO 18 after 48 hrs by agar dilution method. As to conditions: IFO 18, 48 h.

`C=C1CC[C@@]2(OC1)O[C@H]1C[C@H]3[C@@H]4CC[C@@H]5C[C@@H](O[C@@H]6O[C@H](CO)[C@@H](O)[C@H](O[C@@H]7OC[C@@H](O)[C@H](O)[C@H]7O)[C@H]6O[C@@H]6O[C@H](CO)[C@@H](O)[C@H](O)[C@H]6O)CC[C@]5(C)[C@H]4CC[C@]3(C)[C@H]1[C@@H]2C`: the MIC (as a rule, the smallest concentration in the dilution series that meets the test's criterion for growth inhibition) was 6.25 µg/mL (≈ 7.18 µM) against Candida albicans; 3.13 µg/mL (≈ 3.59 µM) against Wickerhamomyces anomalus; 12.5 µg/mL (≈ 14.4 µM) in the assay on Hanseniaspora uvarum; 3.13 µg/mL (≈ 3.59 µM) in the assay with Saccharomyces cerevisiae; 3.13 µg/mL (≈ 3.59 µM) with Yamadazyma nakazawae; 6.25 µg/mL (≈ 7.18 µM) against Debaryomyces hansenii.

In the case of `C[C@H]1CC[C@@]2(OC1)O[C@H]1C[C@H]3[C@@H]4CC[C@@H]5C[C@@H](O[C@@H]6O[C@H](CO)[C@H](O)[C@H](O[C@@H]7O[C@H](CO)[C@@H](O)[C@H](O)[C@H]7O)[C@H]6O[C@@H]6O[C@H](CO)[C@@H](O)[C@H](O)[C@H]6O)CC[C@]5(C)[C@H]4CC[C@]3(C)[C@H]1[C@@H]2C`, the minimal inhibitory concentration (MIC) in the assay with Candida albicans came out at 25 µg/mL (≈ 27.7 µM); with Wickerhamomyces anomalus it was 3.13 µg/mL (≈ 3.47 µM); against Hanseniaspora uvarum it was 50 µg/mL (≈ 55.4 µM); against Saccharomyces cerevisiae, 12.5 µg/mL (≈ 13.8 µM); in the assay on Yamadazyma nakazawae, 6.25 µg/mL (≈ 6.92 µM); in the assay with Debaryomyces hansenii, 6.25 µg/mL (≈ 6.92 µM).

As to `C[C@H]1CC[C@@]2(OC1)O[C@H]1C[C@H]3[C@@H]4CC[C@@H]5C[C@@H](O[C@@H]6O[C@H](CO)[C@@H](O)[C@H](O[C@@H]7O[C@H](CO)[C@@H](O)[C@H](O)[C@H]7O)[C@H]6O[C@@H]6O[C@H](CO)[C@@H](O)[C@H](O)[C@H]6O)CC[C@]5(C)[C@H]4CC[C@]3(C)[C@H]1[C@@H]2C`, the MIC against Candida albicans was greater than 100 µg/mL; in the assay on Wickerhamomyces anomalus it was 1.56 µg/mL (≈ 1.73 µM); against Hanseniaspora uvarum, greater than 100 µg/mL; against Saccharomyces cerevisiae, 6.25 µg/mL (≈ 6.92 µM); in the assay on Yamadazyma nakazawae, 3.13 µg/mL (≈ 3.47 µM); against Debaryomyces hansenii it was 6.25 µg/mL (≈ 6.92 µM).

With `C[C@H]1CC[C@@]2(OC1)O[C@H]1C[C@H]3[C@@H]4CC[C@@H]5C[C@@H](O[C@@H]6O[C@H](CO)[C@H](O)[C@H](O)[C@H]6O[C@@H]6O[C@H](CO)[C@@H](O)[C@H](O)[C@H]6O)[C@@H](O)C[C@]5(C)[C@H]4CC[C@]3(C)[C@H]1[C@@H]2C`, the MIC was greater than 100 µg/mL in the assay with Candida albicans; greater than 100 µg/mL with Wickerhamomyces anomalus; greater than 100 µg/mL with Hanseniaspora uvarum; greater than 100 µg/mL with Saccharomyces cerevisiae; 100 µg/mL (≈ 132 µM) against Yamadazyma nakazawae; greater than 100 µg/mL against Debaryomyces hansenii.

Consider `C=C1CC[C@@]2(OC1)O[C@H]1C[C@H]3[C@@H]4CC[C@@H]5C[C@@H](O[C@@H]6O[C@H](CO)[C@H](O)[C@H](O)[C@H]6O[C@@H]6O[C@H](CO)[C@@H](O)[C@H](O)[C@H]6O)[C@@H](O)C[C@]5(C)[C@H]4CC[C@]3(C)[C@H]1[C@@H]2C`, for which the MIC in the assay on Candida albicans, with Wickerhamomyces anomalus, against Hanseniaspora uvarum, in the assay on Saccharomyces cerevisiae, in the assay on Yamadazyma nakazawae and in the assay on Debaryomyces hansenii was greater than 100 µg/mL each time.

Consider `C[C@H]1CC[C@@]2(OC1)O[C@H]1C[C@H]3[C@@H]4CC[C@@H]5C[C@@H](O[C@@H]6O[C@H](CO)[C@@H](O)[C@H](O)[C@H]6O[C@@H]6O[C@H](CO)[C@@H](O)[C@H](O)[C@H]6O)CC[C@]5(C)[C@H]4CC[C@]3(C)[C@H]1[C@@H]2C`, for which the MIC was 12.5 µg/mL (≈ 16.9 µM) in the assay with Candida albicans; 6.25 µg/mL (≈ 8.44 µM) against Wickerhamomyces anomalus; greater than 100 µg/mL against Hanseniaspora uvarum; 12.5 µg/mL (≈ 16.9 µM) with Saccharomyces cerevisiae; 3.13 µg/mL (≈ 4.22 µM) with Yamadazyma nakazawae; greater than 100 µg/mL in the assay with Debaryomyces hansenii.

Regarding `C=C1CC[C@@]2(OC1)O[C@H]1C[C@H]3[C@@H]4CC[C@@H]5C[C@@H](O[C@@H]6O[C@H](CO)[C@@H](O)[C@H](O[C@@H]7O[C@H](CO)[C@@H](O)[C@H](O)[C@H]7O)[C@H]6O[C@@H]6O[C@H](CO)[C@@H](O)[C@H](O)[C@H]6O)CC[C@]5(C)[C@H]4CC[C@]3(C)[C@H]1[C@@H]2C`, the MIC against Candida albicans is 12.5 µg/mL (≈ 13.9 µM); in the assay on Wickerhamomyces anomalus, 6.13 µg/mL (≈ 6.8 µM); with Hanseniaspora uvarum, greater than 100 µg/mL; in the assay on Saccharomyces cerevisiae, 12.5 µg/mL (≈ 13.9 µM); against Yamadazyma nakazawae it was 3.13 µg/mL (≈ 3.47 µM); against Debaryomyces hansenii, greater than 100 µg/mL.

For the compound `CC1CC[C@@]2(OC1)O[C@H]1C[C@H]3[C@@H]4CC[C@@H]5C[C@@H](O[C@@H]6O[C@H](CO)[C@H](O)[C@H](O[C@@H]7OC[C@@H](O)[C@H](O)[C@H]7O)[C@H]6O[C@@H]6O[C@H](CO)[C@@H](O)[C@H](O)[C@H]6O)[C@@H](O)C[C@]5(C)[C@H]4CC[C@]3(C)[C@H]1[C@@H]2C` (some centres undefined), the MIC is greater than 100 µg/mL in the assay with Candida albicans; greater than 100 µg/mL in the assay on Wickerhamomyces anomalus; greater than 100 µg/mL in the assay on Hanseniaspora uvarum; 100 µg/mL (≈ 112 µM) in the assay on Saccharomyces cerevisiae; greater than 100 µg/mL in the assay on Yamadazyma nakazawae; 100 µg/mL (≈ 112 µM) against Debaryomyces hansenii.

Consider `CC1CC[C@@]2(OC1)O[C@H]1C[C@H]3[C@@H]4CC[C@@H]5C[C@@H](O[C@@H]6O[C@H](CO)[C@@H](O)[C@H](O[C@@H]7OC[C@@H](O)[C@H](O)[C@H]7O)[C@H]6O[C@@H]6O[C@H](CO)[C@@H](O)[C@H](O)[C@H]6O)CC[C@]5(C)[C@H]4CC[C@]3(C)[C@H]1[C@@H]2C` (mixture of isomers), for which the MIC in the assay on Candida albicans is 50 µg/mL; with Wickerhamomyces anomalus, 3.13 µg/mL; with Hanseniaspora uvarum it was greater than 100 µg/mL; in the assay with Saccharomyces cerevisiae, 6.25 µg/mL; with Yamadazyma nakazawae, 3.13 µg/mL; against Debaryomyces hansenii, 6.25 µg/mL.

Consider `C=C1CC[C@@]2(OC1)O[C@H]1C[C@H]3[C@@H]4CC[C@@H]5C[C@@H](O[C@@H]6O[C@H](CO)[C@H](O)[C@H](O[C@@H]7OC[C@@H](O)[C@H](O)[C@H]7O)[C@H]6O[C@@H]6O[C@H](CO)[C@@H](O)[C@H](O)[C@H]6O)CC[C@]5(C)[C@H]4CC[C@]3(C)[C@H]1[C@@H]2C`, for which the MIC with Candida albicans was 12.5 µg/mL (≈ 14.4 µM); in the assay with Wickerhamomyces anomalus, 3.13 µg/mL (≈ 3.59 µM); with Hanseniaspora uvarum it was greater than 100 µg/mL; in the assay with Saccharomyces cerevisiae, 12.5 µg/mL (≈ 14.4 µM); in the assay on Yamadazyma nakazawae it was 3.13 µg/mL (≈ 3.59 µM); in the assay with Debaryomyces hansenii, greater than 100 µg/mL.

With `CC1CC[C@@]2(OC1)O[C@H]1C[C@H]3[C@@H]4CC[C@@H]5C[C@@H](O[C@@H]6O[C@H](CO)[C@H](O)[C@H](O[C@@H]7OC[C@@H](O)[C@H](O)[C@H]7O)[C@H]6O[C@@H]6O[C@H](CO)[C@@H](O)[C@H](O)[C@H]6O)CC[C@]5(C)[C@H]4CC[C@]3(C)[C@H]1[C@@H]2C` (mixture of isomers), the MIC is greater than 100 µg/mL in the assay on Candida albicans; 3.13 µg/mL in the assay with Wickerhamomyces anomalus; greater than 100 µg/mL against Hanseniaspora uvarum; 25 µg/mL in the assay with Saccharomyces cerevisiae; 12.5 µg/mL against Yamadazyma nakazawae; 50 µg/mL with Debaryomyces hansenii.

As to `CC1CC[C@@]2(OC1)O[C@H]1C[C@H]3[C@@H]4CC[C@@H]5C[C@@H](O[C@@H]6O[C@H](CO)[C@@H](O)[C@H](O[C@@H]7OC[C@@H](O)[C@H](O)[C@H]7O)[C@H]6O[C@@H]6O[C@H](CO)[C@@H](O)[C@H](O)[C@H]6O)CC[C@]5(C)[C@H]4CC(=O)[C@]3(C)[C@H]1[C@@H]2C` (mixture of isomers), the MIC with Candida albicans was greater than 100 µg/mL; with Wickerhamomyces anomalus, 100 µg/mL; in the assay with Hanseniaspora uvarum it was greater than 100 µg/mL; with Saccharomyces cerevisiae it was 100 µg/mL; with Yamadazyma nakazawae it was greater than 100 µg/mL; against Debaryomyces hansenii, greater than 100 µg/mL.

On to `C=C1CC[C@@]2(OC1)O[C@H]1C[C@H]3[C@@H]4CC[C@@H]5C[C@@H](O[C@@H]6O[C@H](CO)[C@H](O)[C@H](O[C@@H]7OC[C@@H](O)[C@H](O)[C@H]7O)[C@H]6O[C@@H]6O[C@H](CO)[C@@H](O)[C@H](O)[C@H]6O)[C@@H](O)C[C@]5(C)[C@H]4CC[C@]3(C)[C@H]1[C@@H]2C`, for which the MIC against Candida albicans was 100 µg/mL (≈ 113 µM); against Wickerhamomyces anomalus, greater than 100 µg/mL; in the assay on Hanseniaspora uvarum, greater than 100 µg/mL; against Saccharomyces cerevisiae, 100 µg/mL (≈ 113 µM); with Yamadazyma nakazawae, 100 µg/mL (≈ 113 µM); in the assay with Debaryomyces hansenii, greater than 100 µg/mL.

Turning to `C=C1CC[C@@]2(OC1)O[C@H]1C[C@H]3[C@@H]4CC[C@@H]5C[C@@H](O[C@@H]6O[C@H](CO)[C@@H](O)[C@H](O[C@@H]7OC[C@@H](O)[C@H](O)[C@H]7O)[C@H]6O[C@@H]6O[C@H](CO)[C@@H](O)[C@H](O)[C@H]6O)CC[C@]5(C)[C@H]4CC(=O)[C@]3(C)[C@H]1[C@@H]2C`, the MIC against Candida albicans, against Wickerhamomyces anomalus, in the assay with Hanseniaspora uvarum, against Saccharomyces cerevisiae, against Yamadazyma nakazawae and with Debaryomyces hansenii was greater than 100 µg/mL in each case.
